From patent publication US12630512B2, “Agents for differentiating stem cells and treating cancer” (Minerva Biotechnologies Corporation, priority 2017, dated 2026)

How the values were obtained:
human fibroblasts = assay: Effect on fibroblasts as surrogate for normal cells; assay type: cell-based; conditions: 500 nM final concentration (FIG. 24)
Source text: However, fibroblasts are more differentiated than stem cells but are able to self-replicate for defined periods of time. We tested selected compounds of the invention to determine if these compounds were just cytotoxic or if they selectively affected stem cells and, importantly, cancer cells, but not normal, healthy cells. Here, we used fibroblasts as a surrogate for normal cells. […] […] Each compound was scored for its effect on fibroblast proliferation where “+” indicates 25% inhibition of fibroblast growth, “++” 50% inhibition and “+++” 75% inhibition of growth.

[1] = test system: human naïve state stem cells; assay: Stem cell drug screen on naïve state stem cells (pluripotency, proliferation, differentiation); assay type: cell-based; conditions: JQ1 at 500 nM or 1 uM, naïve cells from NME7AB or NME1 dimers (FIGS. 13-16)
[2] = test system: human primed state stem cells; assay: Stem cell drug screen on primed state stem cells (pluripotency, proliferation, differentiation); assay type: cell-based; conditions: for induction of differentiation / effect on growth of primed state stem cells: treated for 3 days, JQ1 at 500 nM or 1 uM (FIGS. 11-12)
Description: (§1) The stem cell screening assay, was performed in both the presence and absence of the stem cell growth factors: NME7AB for growing naïve stem cells or FGF for growing primed stem cells. If the cognate growth factor was present, then the biological or small molecule would have to compete away the growth factor to get an effect. Therefore, we expected to see more of an effect when the growth factor, FGF for primed stem cells or NME7AB or NME1 dimers for naïve stem cells, was absent. The effect of the compounds on stem cells was visually determined and compounds were ranked 0-4, with 4 being the greatest effect and 0 being no observable effect. The major effect that was observed was a change from pluripotent stem cell morphology, which is a cobblestone pattern of small round cells with a large nucleus to cytoplasm ratio, to that of differentiating stem cells, which are elongated, large and flattened cells with a smaller nucleus to cytoplasm ratio. […] The compounds were added to a final concentration of 6 uM to either naïve state stem cells or primed state stem cells. In this particular case, the naïve state stem cells were maintained in a naïve state by culturing in a media containing NME7AB or NME1 dimers. However, other methods such as 2i and 5i (Silva et al., 2008, Nichols and Smith, 2009, Theunissen et al., 2014)] can be used to maintain stem cells in a more naïve state. In this case primed state stem cells were cultured in bFGF over a layer of MEFs, although it is known that any bFGF containing media will maintain stem cells in the primed state.
(§2) Percent inhibition of cancer cell migration was performed in a wound healing assay. The percent area that the invading cancer cells occupied, in the presence of a drug candidate compared to the controls, was quantified by Image J cell software which enables cell counting from photographs. IC50's were calculated by performing migration experiments at several compound concentrations and then applying Hill's equation. Inhibition of cancer cell proliferation was quantified by automated cell counting in the presence or absence of a drug candidate. Here, the inhibition of cancer cell proliferation was scored 1 if proliferation was inhibited by 25%, 2 if inhibited by […] and 4 for the highest degree of inhibition of proliferation, and 0 for the lowest. The effect of the drug candidates on stem cell pluripotency or proliferation was scored by eye, based on cell morphology and cell density, with 0 being no change in morphology or cell number and 4 being the most profound effect, with the stem cells taking on the morphology of a differentiating cell, along with much fewer cells indicative of inhibition of proliferation. As an example, FIGS. 30A-30F show photographs of naïve stem cell, primed stem cell and fibroblast controls. FIGS. 31A-31F show the effect of compounds of the invention on naïve state stem cells, where the number of ‘+’ signs indicates the score from 0-4 of ability of compound to inhibit pluripotency, proliferation of naïve stem cells or ability to induce their differentiation. […] FIGS. 36-44 and 65-87 show photographs and IC50 graphs of the compounds of the invention, inhibiting cancer cell migration and invasion. Cancer cell migration is a hallmark of metastatic cancer.
Stem cells whether embryonic or induced pluripotent stem (iPS) cells were cultured in a minimal, serum-free media that contained human recombinant bFGF at a concentration of 8 ng/mL. The stem cells were plated over a layer of inactivated mouse embryonic fibroblasts, aka MEFs, which secrete additional uncharacterized growth factors and cytokines.
Human naïve state and primed stem cells were cultured in parallel for at least 5 passages to guarantee normal differentiation-free growth. The stem cells were plated in 12-well cell culture plates with 50,000 cells per well. Cells were cultured in their respective media, either bFGF media or NME7AB media for 24 hours. […]

[3] = test system: fibronectin, vimentin, NF1; assay: RT-PCR of markers of differentiation in naïve stem cells; assay type: cell-based, human
Source text: The genes whose expression increased as a result of treatment with the compounds of the invention, in a concentration dependent manner, are fibronectin and vimentin, which both increase as stem cells initiate differentiation and NF1, which is one of the first genes to increase when stem cells begin to differentiate down the neural lineage. […] Thus, compounds of the invention that induce markers of differentiation are useful for the treatment of cancers, because cancer cells, by definition, have de-differentiated, which allows them to continually self-replicate. […] Expression of metastatic marker E-cadherin was reduced and expression of differentiation markers fibronectin, vimentin and NF1 were increased.

[4] = test system: human naïve state stem cells; assay: Stem cell drug screen on naïve state stem cells (pluripotency, proliferation, differentiation); assay type: cell-based; conditions: first panel (FIGS. 2, 7-10); small molecules 6 uM; 3 days; with or without NME7AB
Description: as §1, §2
Stem cells whether embryonic or induced pluripotent stem (iPS) cells were cultured in a minimal, serum-free media that contained human recombinant NME7AB at a concentration of 2-32 nM wherein 4-8 nM is preferred and 4 nM is more preferred. To facilitate surface attachment, cell culture plates were coated with an anti-MUC1* monoclonal antibody called MN-C3 or C3 or MN-C8 at a concentration of 2-100 μg/mL coating solution, wherein 3-50 ug/mL is preferred and 6-12.5 ug/mL is more preferred. In these experiments, 12.5 ug/mL of MN-C3 was used. Antibody coated plates were incubated at 4 degrees C. overnight prior to plating stem cells. A Rho kinase I inhibitor was added to enhance surface attachment. […]

cancer cells [5] = conditions: in vitro; stated as previously shown; cited from earlier work
cancer cells [6] = conditions: NME7AB-driven transformation; stated as previously shown; cited from earlier work

With `Cc1sc2c(c1C)C(c1ccc(Cl)cc1)=N[C@@H](CC(=O)OC(C)(C)C)c1nnc(C)n1-2` [JQ1(+), reference compound] the “effect on human fibroblasts” value (human fibroblasts) was “same effect on fibroblasts as it does on primed state stem cells”, the “effect on naïve state stem cell differentiation and growth” value [1] was “dramatically induced differentiation of naïve state stem cells and inhibited their growth” and the “effect on naïve state stem cell differentiation and growth” value ([1]; listed as JQI) was “inhibitory effect”. The “effect on the size of primed stem cell colonies” value ([2]; treated for 3 days (FIG. 11)) was “modest effect”, the “induction of differentiation / effect on growth of primed state stem cells” value [2] was “None of these agents appeared to induce differentiation” and the “induction of differentiation / effect on growth of primed state stem cells” value ([2]; listed as JQI) was “not primed stem cell growth”. For the same compound, the “up-regulation of markers of differentiation in stem cells” value [3] was “did not cause up-regulation of markers of differentiation”.
For `COC(=O)c1ccc(C2c3[nH]c4ccccc4c3CCN2C(=O)c2cccc(Cl)c2)cc1` (centres unmarked) [MN0642], the “induced differentiation / inhibited pluripotency and growth of naïve state stem cells” value [4] is listed as “induced differentiation” and the “inhibition of cancer cell growth” value (cancer cells [5]) is listed as “inhibit the growth of cancer cells in vitro”.
With `CCCCNC(=O)N1CCc2c([nH]c3ccccc23)C1C(C)c1ccccc1` (centres unmarked) [MN1130] the “induced differentiation / inhibited pluripotency and growth of naïve state stem cells” value [4] was “induced differentiation” and the “effect on primed stem cells” value ([2]; first panel (FIGS. 2-6), small molecules 6 uM, 3 days, with or without FGF) was “modest effect”.
With `Cc1[nH]c(/C=C2\C(=O)Nc3ccc(S(=O)(=O)N(C)c4cccc(Cl)c4)cc32)c(C)c1C(=O)N1CCN(C)CC1` [SU11274] the “up-regulation of markers of differentiation in stem cells” value [3] was “did not cause up-regulation of markers of differentiation”.
In the case of “FLR peptide: synthetic peptide corresponding to the extracellular domain of MUC1*, FLR also known as PSMGFR (SEQ ID NO:3) (GTINVHDVETQFNQYKTEAASRYNLTISDVSVSDVPFPFSAQSGA; the extracellular domain of Native Primary Sequence of the MUC1 Growth Factor Receptor (nat-PSMGFR - an example of "PSMGFR"))”, the “inhibition of the transition of regular cancer cells to metastatic cancer cells” value (cancer cells [6]) is given as “inhibit the transition” and the “induced differentiation / inhibited pluripotency and growth of naïve state stem cells” value [4] is given as “induced differentiation”.
